In US20250195393A1, “COSMETIC COMPOSITION COMPRISING SKIN ACTIVE AGENT” (priority 2023, published 2025):
Read-outs that look alike come from different tables or passages of the source.

Key:
[1] = Hansen Solubility Parameters (D, P, H) and distance Ra of solvents (b)
Source text: The oil phase of the emulsion includes the hydrophobic polymer of (a) dissolved in one or more solvents capable of solubilizing the hydrophobic polymer. The one or more solvent may include one or more solvents used to generate or solubilize the hydrophobic polymer, e.g., 2,2,4-trimethyl-1,3-pentanediol-monoisobutyrate. The one or more solvents may be a single solvent or a plurality of solvents.
[formula] • wherein • D1 is 16.8 MPa^0.5, • P1 is 4.8 MPa^0.5, and • H1 is 13.0 MPa^0.5.
In a preferred embodiment, the one or more solvents have a dispersion component (D), a polar component (P), a hydrogen bonding component (H), and a distance (Ra) of less than or equal to 9.9 MPa^0.5 per Hansen Solubility Parameters, wherein the distance (Ra) is defined by formula (I):
[formula] • wherein • D1 is 16.4 MPa^0.5, • P1 is 5.0 MPa^0.5, and • H1 is 11.7 MPa^0.5.
The solvent may be an oil. The term “oil” is intended to mean a non-aqueous compound, non-miscible in water, and liquid at 25° C. and atmospheric pressure (760 mmHg; 1.013×10^5 Pa). […] The solvents may include acetone. The solvents may include oleic acid. The solvents may include an oleic acid containing oil (such as a vegetable oil).

[2] = Hansen Solubility Parameters; cited from earlier work

SMILES	Ra (Preferred Range) ([1]; distance per formula (I) with D1 16.4, P1 5.0, H1 11.7, preferred <= 9.9) [MPa^0.5]	Ra (Allowable Range) ([1]; distance per formula (I) with D1 16.8, P1 4.8, H1 13.0, allowable <= 13.4) [MPa^0.5]	D (dispersion component) [2] [MPa^0.5]	H (hydrogen bonding component) [2] [MPa^0.5]	P (polar component) [2] [MPa^0.5]	Ra (Allowable Range) [1] [MPa^0.5]	Ra (Preferred Range) [1] [MPa^0.5]
CC(C)=O [Acetone]	7.38	8.61	15.5	7	10.4		
CCO [Ethanol]			15.8	19.4	8.8	7.81	8.67
CC(C)O [Isopropyl Alcohol]			15.8	6.4	6.1	7.02	5.54
CCCCCCCCCCCCCC(=O)OC(C)C [Isopropyl Myristate]			15.9	2.8	2.1	10.70	9.41
CCCCCCCCCCC(CO)CCCCCCCC (centres unmarked) [Octyldodecanol]			16.1	7.4	2.2	6.33	5.17
CCCCCCCC/C=C\CCCCCCCC(=O)O [Oleic Acid]			16	6.2	2.8	7.27	5.98
OCCOc1ccccc1 [Phenoxyethanol]						2.55	3.88
